Data on 53 molecules can be found in patent publication US10723733B2, “Hepatitis B antiviral agents” (Enanta Pharmaceuticals, Inc., priority 2017, dated 2020).

Structures are written as SMILES.

The first experiment has as its system HBV. Briefly: HepAD38 antiviral assay: reduction of viral product accumulation (virion DNA by qPCR, HBsAg/HBeAg by ELISA). The format is cell-based. Particulars: Hepatitis B virus, 120 h; HepAD38 cells; 50% reduction of viral product accumulation vs no drug controls; five days after compound addition; class symbols. The procedure:
Methods: HepAD38 cells are maintained as previously reported (Ladner et al, Antimicrob. Agents Chemother. 1997, […], 1715). Briefly, cells are passaged upon attaining confluency in DMEM/F12 media in the presence of 10% FBS, Penn/Strep, 250 μg/mL G418, and 1 μg/ml tetracycline. Novel compounds are screened by first washing cells three times with PBS to remove tetracycline, and plating in 96 well plates at 35,000 cells/well. Compounds dissolved in DMSO are then diluted 1:200 into wells containing cells. Five days after compound addition, material is harvested for analysis. For an extended 8 day analysis, cells are plated and treated as described above, but media and compound are refreshed on d2 and d5 post initial treatment.
On harvest day, virion DNA is obtained by lysing with Sidestep Lysis and Stabilization Buffer and then quantified via quantitative real time PCR. Commercially available ELISA kits are used to quantitate the viral proteins HBsAg (Alpco) or HbeAg (US Biological) by following the manufacturer's recommended protocol after diluting samples to match the linear range of their respective assays. Irrespective of readout, compound concentrations that reduce viral product accumulation in the cell lysates or supernatants by 50% relative to no drug controls (EC50) are reported; EC50 ranges are as follows: A<0.1 μM; B 0.1-1 μM; C>1 μM.
One may read the EC50 as the concentration that produces a half-maximal response. A lower EC50 goes with an effect from little substance. In turn, `CC(C)(C)OC(=O)N[C@H]1CC2=C(c3cnn(C(F)F)c3)[C@H](c3ccc(F)cc3Cl)N=C(c3nccs3)N2C1` [Example 2] showed a half-maximal effective concentration (EC50) of 100 to 1000 nM.

For `CC(C)n1cc(C2=C3C[C@H](NS(=O)(=O)C4CC4)CN3C(c3nccs3)=N[C@H]2c2ccc(F)cc2Cl)cn1` [Example 5], the EC50 is below 100 nM.

`O=S(=O)(N[C@H]1CC2=C(c3cnn(CC(F)(F)F)c3)[C@H](c3ccc(F)cc3Cl)N=C(c3nccs3)N2C1)C1CC1` [Example 7] displayed an EC50 below 100 nM.

Regarding `COC(=O)N[C@H]1CC2=C(c3cnn(C(F)F)c3)[C@H](c3ccc(F)cc3Cl)N=C(c3nccs3)N2C1` [Example 14], the half-maximal effective concentration (EC50) is below 100 nM.

With `CN(C)C(=O)N[C@H]1CC2=C(c3cnn(C(F)F)c3)[C@H](c3ccc(F)cc3Cl)N=C(c3nccs3)N2C1` [Example 18], the EC50 is below 100 nM.

The molecule `O=S(=O)(N[C@H]1CC2=C(c3cnn(C(F)F)c3)[C@H](c3ccc(F)cc3Cl)N=C(c3nccs3)N2C1)N1CCCC1` [Example 19] had a half-maximal effective concentration (EC50) below 100 nM.

`CCS(=O)(=O)N[C@H]1CC2=C(c3cnn(C(F)F)c3)[C@H](c3ccc(F)cc3Cl)N=C(c3nccs3)N2C1` [Example 21] gave an EC50 below 100 nM.

Regarding `CCCS(=O)(=O)N[C@H]1CC2=C(c3cnn(C(F)F)c3)[C@H](c3ccc(F)cc3Cl)N=C(c3nccs3)N2C1` [Example 22], the concentration giving a half-maximal response (EC50) is below 100 nM.

In turn, `CCCCS(=O)(=O)N[C@H]1CC2=C(c3cnn(C(F)F)c3)[C@H](c3ccc(F)cc3Cl)N=C(c3nccs3)N2C1` [Example 23] had an EC50 below 100 nM.

`CC(C)S(=O)(=O)N[C@H]1CC2=C(c3cnn(C(F)F)c3)[C@H](c3ccc(F)cc3Cl)N=C(c3nccs3)N2C1` [Example 24]: the EC50 is below 100 nM.

Take `CS(=O)(=O)OC[C@@]1(F)CC2=C(c3cnn(C(F)F)c3)[C@H](c3ccc(F)cc3Cl)N=C(c3nccs3)N2C1` [Example 35]: the half-maximal effective concentration (EC50) was 100 to 1000 nM.

In the case of `CS(=O)(=O)NCC1(F)CC2=C(c3cnn(C(F)F)c3)[C@H](c3ccc(F)cc3Cl)N=C(c3nccs3)N2C1` (some centres unmarked) [Example 43], the EC50 fell in the range of 100 to 1000 nM.

As to `CN(C)C(=O)NCC1(F)CC2=C(c3cnn(C(F)F)c3)[C@H](c3ccc(F)cc3Cl)N=C(c3nccs3)N2C1` (some centres unmarked) [Example 44], the EC50 lay in the range of 100 to 1000 nM.

In turn, `OC1CCCC1CC1=C(c2cnn(C(F)F)c2)[C@H](c2ccc(F)cc2Cl)N=C(c2nccs2)N1` (some centres unmarked) [Example 45] gave an EC50 of 100 to 1000 nM.

`OC1CCCCC1CC1=C(c2cnn(C(F)F)c2)[C@H](c2ccc(F)cc2Cl)N=C(c2nccs2)N1` (some centres unmarked) [Example 46]: the EC50 was 100 to 1000 nM.

For the molecule `CS(=O)(=O)OC[C@]1(N=[N+]=[N-])CC2=C(c3cnn(C(F)F)c3)[C@H](c3ccc(F)cc3Cl)N=C(c3nccs3)N2C1` [Example 49], the EC50 was in the range of 100 to 1000 nM.

`[N-]=[N+]=N[C@]1(CO)CC2=C(c3cnn(C(F)F)c3)[C@H](c3ccc(F)cc3Cl)N=C(c3nccs3)N2C1` [Example 50] returned a concentration for a half-maximal effect (EC50) below 100 nM.

`CS(=O)(=O)OC[C@@]1(N=[N+]=[N-])CC2=C(c3cnn(C(F)F)c3)[C@H](c3ccc(F)cc3Cl)N=C(c3nccs3)N2C1` [Example 51]: the EC50 fell in the range of 100 to 1000 nM.

`COC(=O)OC[C@@]1(N=[N+]=[N-])CC2=C(c3cnn(C(F)F)c3)[C@H](c3ccc(F)cc3Cl)N=C(c3nccs3)N2C1` [Example 55] gave an EC50 below 100 nM.

For `CC(=O)OC[C@@]1(N=[N+]=[N-])CC2=C(c3cnn(C(F)F)c3)[C@H](c3ccc(F)cc3Cl)N=C(c3nccs3)N2C1` [Example 59], the 50% effective concentration (EC50) is below 100 nM.

Still in this experiment, the particulars now being: Hepatitis B virus, 120 h; HepAD38 cells; 50% reduction of viral product accumulation vs no drug controls; five days after compound addition; given as numeric bound.
On to `O=S(=O)(N[C@H]1CC2=C(c3cc[nH]n3)[C@H](c3ccc(F)cc3Cl)N=C(c3nccs3)N2C1)C1CC1` [Example 4], for which the 50% effective concentration (EC50) is above 100 nM.

For the molecule `CS(=O)(=O)NC(=O)N[C@H]1CC2=C(c3cnn(C(F)F)c3)[C@H](c3ccc(F)cc3Cl)N=C(c3nccs3)N2C1` [Example 15], the EC50 was above 100 nM.

For the molecule `O=C(N[C@H]1CC2=C(c3cnn(C(F)F)c3)[C@H](c3ccc(F)cc3Cl)N=C(c3nccs3)N2C1)NS(=O)(=O)C1CC1` [Example 16], the half-maximal effective concentration (EC50) is above 100 nM.

In turn, `O=C(N[C@H]1CC2=C(c3cnn(C(F)F)c3)[C@H](c3ccc(F)cc3Cl)N=C(c3nccs3)N2C1)NS(=O)(=O)c1ccccc1` [Example 17] registered a concentration giving a half-maximal response (EC50) above 100 nM.

Molecule `CC(=O)NS(=O)(=O)N[C@H]1CC2=C(c3cnn(C(F)F)c3)[C@H](c3ccc(F)cc3Cl)N=C(c3nccs3)N2C1` [Example 20] returned an EC50 above 400 nM.

On to `Fc1ccc([C@@H]2N=C(c3nccs3)N3C[C@@H](OCc4ccccc4)CC3=C2c2cnn(C(F)F)c2)c(Cl)c1` [Example 25], for which the EC50 was above 200 nM.

In turn, `OCC(CO)CC1=C(c2cnn(C(F)F)c2)[C@H](c2ccc(F)cc2Cl)N=C(c2nccs2)N1` [Example 26] gave a half-maximal effective concentration (EC50) above 100 nM.

In turn, `OCC1CC2=C(c3cnn(C(F)F)c3)[C@H](c3ccc(F)cc3Cl)N=C(c3nccs3)N2C1` (some centres unmarked) [Example 27] had a half-maximal effective concentration (EC50) above 100 nM.

The molecule `CS(=O)(=O)OCC1CC2=C(c3cnn(C(F)F)c3)[C@H](c3ccc(F)cc3Cl)N=C(c3nccs3)N2C1` (some centres unmarked) [Example 28] came in with an EC50 above 100 nM.

On to `CC(=O)NCC1CC2=C(c3cnn(C(F)F)c3)[C@H](c3ccc(F)cc3Cl)N=C(c3nccs3)N2C1` (some centres unmarked) [Example 29], for which the half-maximal effective concentration (EC50) was above 100 nM.

In the case of `CS(=O)(=O)NCC1CC2=C(c3cnn(C(F)F)c3)[C@H](c3ccc(F)cc3Cl)N=C(c3nccs3)N2C1` (some centres unmarked) [Example 30], the EC50 was above 100 nM.

Consider `COC(=O)NCC1CC2=C(c3cnn(C(F)F)c3)[C@H](c3ccc(F)cc3Cl)N=C(c3nccs3)N2C1` (some centres unmarked) [Example 31], for which the concentration for a half-maximal effect (EC50) is above 100 nM.

Consider `CN(C)C(=O)NCC1CC2=C(c3cnn(C(F)F)c3)[C@H](c3ccc(F)cc3Cl)N=C(c3nccs3)N2C1` (some centres unmarked) [Example 32], for which the half-maximal effective concentration (EC50) is above 100 nM.

Molecule `O=S(=O)(NCC1CC2=C(c3cnn(C(F)F)c3)[C@H](c3ccc(F)cc3Cl)N=C(c3nccs3)N2C1)C1CC1` (some centres unmarked) [Example 33] had a half-maximal effective concentration (EC50) above 100 nM.

Molecule `CS(=O)(=O)OC[C@]1(F)CC2=C(c3cnn(C(F)F)c3)[C@H](c3ccc(F)cc3Cl)N=C(c3nccs3)N2C1` [Example 34] showed an EC50 above 400 nM.

`C[C@]1(CN=[N+]=[N-])CC2=C(c3cnn(C(F)F)c3)[C@H](c3ccc(F)cc3Cl)N=C(c3nccs3)N2C1` [Example 36] showed an EC50 above 400 nM.

The molecule `C[C@@]1(CN=[N+]=[N-])CC2=C(c3cnn(C(F)F)c3)[C@H](c3ccc(F)cc3Cl)N=C(c3nccs3)N2C1` [Example 37] registered a 50% effective concentration (EC50) above 400 nM.

In turn, `CC1(CNS(C)(=O)=O)CC2=C(c3cnn(C(F)F)c3)[C@H](c3ccc(F)cc3Cl)N=C(c3nccs3)N2C1` (some centres unmarked) [Example 38] displayed an EC50 above 400 nM.

In turn, `C=CC[C@]1(COS(C)(=O)=O)CC2=C(c3cnn(C(F)F)c3)[C@H](c3ccc(F)cc3Cl)N=C(c3nccs3)N2C1` [Example 39] had an EC50 above 400 nM.

The molecule `C=CC[C@@]1(COS(C)(=O)=O)CC2=C(c3cnn(C(F)F)c3)[C@H](c3ccc(F)cc3Cl)N=C(c3nccs3)N2C1` [Example 40] displayed an EC50 above 400 nM.

`[N-]=[N+]=NCC1(F)CC2=C(c3cnn(C(F)F)c3)[C@H](c3ccc(F)cc3Cl)N=C(c3nccs3)N2C1` (some centres unmarked) [Example 41]: the EC50 is above 400 nM.

`CN(C)C(=O)NCC1(C)CC2=C(c3cnn(C(F)F)c3)[C@H](c3ccc(F)cc3Cl)N=C(c3nccs3)N2C1` (some centres unmarked) [Example 42] registered a concentration for a half-maximal effect (EC50) above 400 nM.

`Fc1ccc([C@@H]2N=C(c3nccs3)N3C(=C2c2cnn(C(F)F)c2)CC2CCCC23)c(Cl)c1` (some centres unmarked) [Example 47] showed a 50% effective concentration (EC50) above 400 nM.

Molecule `[N-]=[N+]=N[C@@]1(CO)CC2=C(c3cnn(C(F)F)c3)[C@H](c3ccc(F)cc3Cl)N=C(c3nccs3)N2C1` [Example 48] came in with an EC50 above 400 nM.

Molecule `[N-]=[N+]=NC[C@]1(N=[N+]=[N-])CC2=C(c3cnn(C(F)F)c3)[C@H](c3ccc(F)cc3Cl)N=C(c3nccs3)N2C1` [Example 52] had a half-maximal effective concentration (EC50) above 400 nM.

On to `[N-]=[N+]=NC[C@@]1(N=[N+]=[N-])CC2=C(c3cnn(C(F)F)c3)[C@H](c3ccc(F)cc3Cl)N=C(c3nccs3)N2C1` [Example 53], for which the 50% effective concentration (EC50) was above 400 nM.

Consider `COC(=O)OC[C@]1(N=[N+]=[N-])CC2=C(c3cnn(C(F)F)c3)[C@H](c3ccc(F)cc3Cl)N=C(c3nccs3)N2C1` [Example 54], for which the EC50 was above 400 nM.

As to `CC(=O)OC[C@]1(N=[N+]=[N-])CC2=C(c3cnn(C(F)F)c3)[C@H](c3ccc(F)cc3Cl)N=C(c3nccs3)N2C1` [Example 58], the EC50 is above 400 nM.

As to `COC(=O)[C@](N)(CO)CC1=C(c2ccn(C(F)F)n2)[C@H](c2ccc(F)cc2Cl)N=C(c2nccs2)N1` [Example 62], the EC50 is above 400 nM.

In turn, `COC(=O)[C@](CO)(CC1=C(c2ccn(C(F)F)n2)[C@H](c2ccc(F)cc2Cl)N=C(c2nccs2)N1)NC(=O)OC(C)(C)C` [Example 63] gave an EC50 above 400 nM.

`COC(=O)[C@@]1(NC(=O)OC(C)(C)C)CC2=C(c3ccn(C(F)F)n3)[C@H](c3ccc(F)cc3Cl)N=C(c3nccs3)N2C1` [Example 64] gave a 50% effective concentration (EC50) above 400 nM.

In turn, `COC(=O)[C@]1(NC(=O)OC(C)(C)C)CC2=C(c3ccn(C(F)F)n3)[C@H](c3ccc(F)cc3Cl)N=C(c3nccs3)N2C1` [Example 65] registered a concentration giving a half-maximal response (EC50) above 400 nM.

In turn, `COC(=O)[C@@]1(NS(C)(=O)=O)CC2=C(c3ccn(C(F)F)n3)[C@H](c3ccc(F)cc3Cl)N=C(c3nccs3)N2C1` [Example 67] registered an EC50 above 400 nM.
